According to US4880807A, “Nicotinoylpiperazines useful for treatment of convulsions” (Institut De Recherches Chimiques et Biologiques Appliquees …, priority 1987, dated 1989):
Where two headings read alike, the source gives them in different places.

Assays:
[1] = oral toxicity in mice (LD50, mortality over 14 days); conditions: mouse, in vivo, po
Experimental: (§1) The toxicity of the products to be studied was investigated by the oral administration, using an esophageal tube, of each of the said products to male mice with a body weight of 18 to 22 g, divided into groups each containing 10 to 20 animals. The mortality was recorded over a 14-day period.

[2] = system: convulsions induced by pentetrazole; assay: animal or person; conditions: for ED50: Mus musculus, read-out: ED50 in respect of convulsions induced by PTZ, per os, male mice, 30 min after administration, pentetrazole 125 mg/kg i.p., dose protecting 50% of animals; for ED50 / ED50 in respect of convulsions induced by PTZ: 0.5 h; for therapeutic indices compared with reference products: in words, PTZ and MCE, reference: sodium valproate and trimethadione
Source text: (§2) The anticonvulsant properties were investigated on male mice, thirty minutes after the oral administration of the substances to be studied, by the induction of convulsive seizures.

[3] = system: convulsions induced by supra maximal electroshock (MCE); assay: animal or person; conditions: for ED50: Mus musculus, read-out: ED50 in respect of convulsions induced by MCE, per os, male mice, 30 min after administration, electrical stimulation of the cornea, dose protecting 50% of animals; for ED50 / ED50 in respect of convulsions induced by MCE: 0.5 h
Experimental: as §2
These seizures are caused either by the intraperitoneal injection of pentetrazole (125 mg/kg) or by electrical stimulation of the cornea (supra maximal electroshock, abbreviated to MCE).

in vivo = format: in vivo; conditions: mouse, po, per os, male mice, Rota-rod 30 min after administration, dose causing 50% of animals to fall, read-out: TD50 (50% neurotoxic dose)
Source text: (§3) The animals (divided into groups each containing ten male mice per dose and per product) are installed on the rod and their fall is observed over the next two minutes.

male mice [4] = assay: in vivo; format: in vivo; conditions: for TD50 (50% neurotoxic dose): per os, male mice, Rota-rod 30 min after administration, dose causing 50% of animals to fall, 30 min
Source text: as §3

male mice [5] = assay: oral toxicity in mice (LD50, mortality over 14 days); conditions: male mice
Experimental: as §1

[6] = LD50, oral (esophageal tube), male mice, groups of 10 to 20, 14 days, Table II
[7] = LD50, per os, male mice, repeated in Table IV
[8] = LD50 per os/ED50 per os, PTZ convulsions
[9] = LD50 per os/ED50 per os, MCE convulsions
[10] = TD50 per os/ED50 per os, MCE convulsions
[11] = TD50 per os/ED50 per os, PTZ convulsions
[12] = oral (esophageal tube), groups of 10 to 20, 14 days, Table II
[13] = per os, repeated in Table IV, 20160 min

Row | SMILES | LD50 at 336 h [1, 6] | ED50 ([2]; po) | ED50 ([3]; po) | ED50 in respect of convulsions induced by PTZ ([2]; po) | ED50 in respect of convulsions induced by MCE ([3]; po) | Therapeutic index PTZ (LD50/ED50) [2, 8] | Therapeutic index MCE (LD50/ED50) [3, 9] | further results
1 | Cc1cccc(N2CCN(C(=O)c3cccnc3)CC2)c1C [Ex. 3] | > 1000 mg/kg | 110 mg/kg | > 200 mg/kg | – | – | – | – | –
2 | O=C(c1cccnc1)N1CCN(c2ccc(F)cc2)CC1 [Ex. 11, 4-(4-fluorophenyl)-1-nicotinoylpiperazine] | – | – | – | 68 mg/kg | 75 mg/kg | – | – | LD50 at 336 h [1]: 625 mg/kg
3 | CCOc1cccc(N2CCN(C(=O)c3cccnc3)CC2)c1 [Ex. 18] | 540 mg/kg | 72 mg/kg | 118 mg/kg | – | – | 7.5 | 4.6 | LD50 at 336 h [1, 7]: 540 mg/kg; TD50 at 0.5 h (in vivo; rota-rod): 291 mg/kg; Protection index MCE (TD50/ED50) (male mice [4]; mouse, in vivo, po): 2.5; Protection index PTZ (TD50/ED50) (male mice [4]; mouse, in vivo, po): 4.0
4 | O=C(c1cccnc1)N1CCN(c2cccc(Cl)c2)CC1 [Ex. 2, 4-(3-chlorophenyl)-1-nicotinoylpiperazine] | 501 mg/kg | 50 mg/kg | 78 mg/kg | – | – | – | – | –
5 | Cc1cc(Cl)ccc1N1CCN(C(=O)c2cccnc2)CC1 [Ex. 22, 4-(4-chloro-2-methylphenyl)-1-nicotinoylpiperazine] | 540 mg/kg | – | – | 55 mg/kg | 87 mg/kg | 9.8 | 6.2 | LD50 at 336 h [1, 7]: 540 mg/kg; Protection index MCE (TD50/ED50) (male mice [4]; [10]): 3.4; Protection index PTZ (TD50/ED50) (male mice [4]; [11]): 5.4; TD50 (50% neurotoxic dose) (male mice [4]): 300 mg/kg
6 | O=C(c1cccnc1)N1CCN(c2ccccc2)CC1 [Ex. 28] | – | – | – | > 200 mg/kg | > 200 mg/kg | – | – | LD50 (male mice [5]; [12]): > 1000 mg/kg
7 | CCOc1ccccc1N1CCN(C(=O)c2cccnc2)CC1 [Ex. 5] | 1000 mg/kg | > 200 mg/kg | > 200 mg/kg | – | – | – | – | –
8 | O=C(c1cccnc1)N1CCN(c2ccccc2C(F)(F)F)CC1 [Ex. 12] | > 1000 mg/kg | > 200 mg/kg | > 200 mg/kg | – | – | – | – | –
9 | O=C(c1cccnc1)N1CCN(c2ccccc2F)CC1 [Ex. 8] | 1000 mg/kg | 180 mg/kg | 180 mg/kg | – | – | 5.6 | 5.6 | LD50 at 336 h [1, 7]: 1000 mg/kg; TD50 at 0.5 h (in vivo; rota-rod): 500 mg/kg; Protection index MCE (TD50/ED50) (male mice [4]; mouse, in vivo, po): 2.8; Protection index PTZ (TD50/ED50) (male mice [4]; mouse, in vivo, po): 2.8
10 | Cc1ccc(Cl)cc1N1CCN(C(=O)c2cccnc2)CC1 [Ex. 25, 4-(5-chloro-2-methylphenyl)-1-nicotinoylpiperazine] | – | – | – | 79 mg/kg | 87 mg/kg | > 12.7 | > 11.5 | LD50 (male mice [5]; [12]): > 1000 mg/kg; LD50 (male mice [5]; [13]): > 1000 mg/kg; Protection index MCE (TD50/ED50) (male mice [4]; [10]): 4.1; Protection index PTZ (TD50/ED50) (male mice [4]; [11]): 4.5; TD50 (50% neurotoxic dose) (male mice [4]): 355 mg/kg
11 | Cc1cccc(Cl)c1N1CCN(C(=O)c2cccnc2)CC1 [Ex. 26] | > 1000 mg/kg | > 200 mg/kg | > 200 mg/kg | – | – | – | – | –
12 | Cc1cccc(C)c1N1CCN(C(=O)c2cccnc2)CC1 [Ex. 30] | > 1000 mg/kg | 138 mg/kg | – | – | – | – | – | –
13 | O=C(c1cccnc1)N1CCN(c2ccccc2F)CC1 [Ex. 9] | – | – | – | > 200 mg/kg | > 200 mg/kg | – | – | LD50 (male mice [5]; [12]): > 1000 mg/kg
14 | O=C(c1cccnc1)N1CCN(c2ccccc2Cl)CC1 [Ex. 4] | > 1000 mg/kg | 160 mg/kg | 200 mg/kg | – | – | – | – | –
15 | CN1C(=O)OC(C)(C)C1=O [TRIM, trimethadione, reference compound] | – | 251 mg/kg | 500 mg/kg | – | – | 8.7 | 4.4 | LD50 at 336 h [1]: 2180 mg/kg; LD50 at 336 h [1, 7]: 2180 mg/kg; TD50 at 0.5 h (in vivo; in vivo): 1000 mg/kg; Protection index MCE (TD50/ED50) (male mice [4]; mouse, in vivo, po): 2.0; Protection index PTZ (TD50/ED50) (male mice [4]; mouse, in vivo, po): 4.0
16 | COc1ccc(N2CCN(C(=O)c3cccnc3)CC2)cc1 [Ex. 17] | – | – | – | 200 mg/kg | > 200 mg/kg | – | – | LD50 (male mice [5]; [12]): > 1000 mg/kg
17 | O=C(c1cccnc1)N1CCN(c2ccc(F)cc2)CC1 [Ex. 10, 4-(4-fluorophenyl)-1-nicotinoylpiperazine] | 600 mg/kg | 62 mg/kg | 75 mg/kg | – | – | – | – | –
18 | Cc1ccc(Cl)cc1N1CCN(C(=O)c2cccnc2)CC1 [Ex. 24, 4-(5-chloro-2-methylphenyl)-1-nicotinoylpiperazine] | > 1000 mg/kg | 63 mg/kg | 83 mg/kg | – | – | > 15.9 | > 12.0 | LD50 at 336 h [1, 7]: > 1000 mg/kg; TD50 at 0.5 h (in vivo; rota-rod): 525 mg/kg; Protection index MCE (TD50/ED50) (male mice [4]; [10]): 6.3; Protection index PTZ (TD50/ED50) (male mice [4]; [11]): 8.3
19 | Cc1ccccc1N1CCN(C(=O)c2cccnc2)CC1 [Ex. 14] | > 1000 mg/kg | – | – | 107 mg/kg | > 200 mg/kg | – | – | LD50 at 336 h [1, 7]: > 1000 mg/kg; Therapeutic index PTZ (LD50/ED50) ([2]; mouse, in vivo, po): > 10.0; Therapeutic index MCE (LD50/ED50) ([3]; mouse, in vivo, po): < 5.0; TD50 at 0.5 h (in vivo; rota-rod): 635 mg/kg; Protection index MCE (TD50/ED50) (male mice [4]; mouse, in vivo, po): < 3.0; Protection index PTZ (TD50/ED50) (male mice [4]; mouse, in vivo, po): 5.9
20 | Cc1cc(Cl)ccc1N1CCN(C(=O)c2cccnc2)CC1 [Ex. 23, 4-(4-chloro-2-methylphenyl)-1-nicotinoylpiperazine] | – | – | – | 124 mg/kg | > 200 mg/kg | > 8.1 | < 5.0 | LD50 (male mice [5]; [12]): > 1000 mg/kg; LD50 (male mice [5]; [13]): > 1000 mg/kg; Protection index MCE (TD50/ED50) (male mice [4]; [10]): 4.5; Protection index PTZ (TD50/ED50) (male mice [4]; [11]): 7.4; TD50 (50% neurotoxic dose) (male mice [4]): 650 mg/kg
21 | O=C(c1cccnc1)N1CCN(c2cccc(C(F)(F)F)c2)CC1 [Ex. 6, 1-nicotinoyl-4-(3-trifluoromethylphenyl)piperazine] | 422 mg/kg | 13 mg/kg | 20 mg/kg | – | – | 32.5 | 21.1 | LD50 at 336 h [1, 7]: 422 mg/kg; therapeutic indices compared with reference products [2]: better than those of the reference products; TD50 at 0.5 h (in vivo; rota-rod): 119 mg/kg; Protection index MCE (TD50/ED50) (male mice [4]; [10]): 6.0; Protection index PTZ (TD50/ED50) (male mice [4]; [11]): 9.1; protection indices compared with reference products (male mice [4]; mouse, in vivo): better than those of the reference products
22 | COc1cccc(N2CCN(C(=O)c3cccnc3)CC2)c1 [Ex. 15] | > 1000 mg/kg | 183 mg/kg | > 200 mg/kg | – | – | – | – | –
23 | Cc1ccccc1N1CCN(C(=O)c2cccnc2)CC1 [Ex. 13] | – | 161 mg/kg | 200 mg/kg | – | – | 6.2 | 5.0 | LD50 at 336 h [1]: 1000 mg/kg; TD50 at 0.5 h (in vivo; in vivo): 800 mg/kg; Protection index MCE (TD50/ED50) (male mice [4]; [10]): 4.0; Protection index PTZ (TD50/ED50) (male mice [4]; [11]): 4.9
24 | COc1ccc(N2CCN(C(=O)c3cccnc3)CC2)cc1 [Ex. 16] | > 1000 mg/kg | 120 mg/kg | > 200 mg/kg | – | – | – | – | –
25 | CC(=O)c1ccc(N2CCN(C(=O)c3cccnc3)CC2)cc1 [Ex. 20] | > 1000 mg/kg | > 200 mg/kg | > 200 mg/kg | – | – | – | – | –
26 | Cl.Cl.O=C(c1cccnc1)N1CCN(c2cccc(C(F)(F)F)c2)CC1 [Ex. 1, 1-nicotinoyl-4-(3-trifluoromethylphenyl)piperazine dihydrochloride] | 575 mg/kg | 17 mg/kg | 19 mg/kg | – | – | 33.8 | 30.2 | LD50 at 336 h [1, 7]: 575 mg/kg; therapeutic indices compared with reference products [2]: better than those of the reference products; TD50 at 0.5 h (in vivo; rota-rod): 154 mg/kg; Protection index MCE (TD50/ED50) (male mice [4]; [10]): 8.1; Protection index PTZ (TD50/ED50) (male mice [4]; [11]): 9.1; protection indices compared with reference products (male mice [4]; mouse, in vivo): better than those of the reference products
27 | O=C(c1cccnc1)N1CCN(c2ccccc2)CC1 [Ex. 27] | > 1000 mg/kg | 156 mg/kg | > 200 mg/kg | – | – | – | – | –
28 | O=C(c1cccnc1)N1CCN(c2ccc(C(F)(F)F)cc2)CC1 [Ex. 7] | > 1000 mg/kg | > 200 mg/kg | > 200 mg/kg | – | – | – | – | –
29 | CCOc1cccc(N2CCN(C(=O)c3cccnc3)CC2)c1 [Ex. 19] | – | – | – | 142 mg/kg | 150 mg/kg | – | 6.7 | Therapeutic index PTZ (LD50/ED50) ([2]; mouse, in vivo, po): 7.0; Protection index MCE (TD50/ED50) (male mice [4]; mouse, in vivo, po): 1.7; Protection index PTZ (TD50/ED50) (male mice [4]; mouse, in vivo, po): 1.8; TD50 (50% neurotoxic dose) (male mice [4]): 250 mg/kg
